The source of these data is PubChem BioAssay (NCI).

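Briefly, cells in 96-well plates were exposed to five compound concentrations for 48 h, and endpoints were estimated by linear interpolation. Abbreviation: GI50, concentration required for 50% inhibition of growth. TGI: concentration producing complete growth inhibition.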

For one assay, the system named is M14 melanoma. As to the kind of experiment: NCI anticancer screen, dose series, 48 h.
As to `Nc1nc(=S)c2ncn(C3OC(COP(=O)(O)O)C(O)C3O)c2[nH]1` (stereo not given), the GI50 was 0.503 µM and the TGI amounted to 32.8 µM.

In the case of `O=C(Nc1ccc(OC(F)(F)Cl)cc1)c1cnc(N2CC[C@@H](O)C2)c(-c2ccn[nH]2)c1`, the GI50 is 4.52 µM and the TGI worked out at 18.3 µM.

`NC(N)=NCCCC(NCc1c2ccccc2nc2ccccc12)C(=O)O` (stereo not given) yielded a TGI greater than 100 µM.

Turning to `Cc1cnc(C(=O)NNc2nc3sc4c(c3c(=O)[nH]2)C(C)CCC4)cn1` (stereo not given), the GI50 was 0.727 µM and the TGI came to 9.52 µM.

With `O=C1c2ccccc2C(=O)c2c(NC3CCCCC3)ccc(Nc3ccc(S(=O)(=O)O)cc3)c21`, the TGI was greater than 100 µM.

For `CN(C)c1ccc(-c2cc(-c3ccc(Nc4nc(Nc5ccc(Cl)cc5)nc(Nc5ccc(Cl)cc5)n4)cc3)nc(N)c2C#N)cc1`, the GI50 is 18.3 µM and the TGI is greater than 100 µM.

In the case of `COCCN(Cc1ccc(F)cc1)c1ccc(CO)c(Cl)c1`, the GI50 is 38.9 µM and the TGI is greater than 100 µM.

For the compound `COc1ccc(C(O)c2cc3c(N)c(C(=O)Nc4cccc5ccccc45)sc3nc2C)cc1` (stereo not given), the GI50 was 0.307 µM and the TGI was greater than 37.7 µM.

Consider `Cc1cc(Br)c(NC(=O)c2c(-c3c(Cl)cccc3Cl)noc2C)c(Br)c1`, for which the GI50 was greater than 100 µM and the TGI is greater than 100 µM.

Regarding `OCC1CC[N-]CC1.OCC1CC[N-]CC1.[Cl][Pt+2]([Cl])([Cl])[Cl]`, the GI50 is 22.2 µM and the TGI was found to be 65 µM.

With `OCCCCC#Cc1ccccc1C#Cc1cccc(C(F)(F)F)c1`, the GI50 is 21.5 µM and the TGI turned out to be 50.5 µM.

For `CC(C)Cc1ccc(C(C)/C=C2\CCC(CN(C)C)C2=O)cc1` (stereo not given), the TGI was 28.5 µM.

In the case of `CCCCCC/C=C\CCCCCCCCC(=O)c1cccc(OC)c1OC`, the TGI was greater than 100 µM.

Compound `Cn1c(=O)c2nc3sc4c(n3c2n(C)c1=O)C(=O)c1ccccc1C4=O` gave a TGI greater than 100 µM.

Turning to `COc1ccc(/C=C2\CCC/C(=C\c3ccc(OC)c(OC)c3)C2=O)cc1OC`, the GI50 was 1.9 µM and the TGI was greater than 32.5 µM.

A further assay deals with NCI/ADR-RES ovarian. Briefly: NCI anticancer screen, dose series, 48 h.
Regarding `Nc1nc(=S)c2ncn(C3OC(COP(=O)(O)O)C(O)C3O)c2[nH]1` (stereo not given), the GI50 is 0.491 µM and the TGI is greater than 100 µM.

Consider `O=C(Nc1ccc(OC(F)(F)Cl)cc1)c1cnc(N2CC[C@@H](O)C2)c(-c2ccn[nH]2)c1`, for which the GI50 was 24.9 µM and the TGI came to 79.6 µM.

On to `NC(N)=NCCCC(NCc1c2ccccc2nc2ccccc12)C(=O)O` (stereo not given), for which the TGI was greater than 100 µM.

For `Cc1cnc(C(=O)NNc2nc3sc4c(c3c(=O)[nH]2)C(C)CCC4)cn1` (stereo not given), the GI50 is 1.78 µM and the TGI came to 10.4 µM.

On to `O=C1c2ccccc2C(=O)c2c(NC3CCCCC3)ccc(Nc3ccc(S(=O)(=O)O)cc3)c21`, for which the TGI is greater than 100 µM.

Regarding `CN(C)c1ccc(-c2cc(-c3ccc(Nc4nc(Nc5ccc(Cl)cc5)nc(Nc5ccc(Cl)cc5)n4)cc3)nc(N)c2C#N)cc1`, the GI50 is greater than 100 µM and the TGI was greater than 100 µM.

On to `COCCN(Cc1ccc(F)cc1)c1ccc(CO)c(Cl)c1`, for which the GI50 was 27.1 µM and the TGI was greater than 100 µM.

Regarding `COc1ccc(C(O)c2cc3c(N)c(C(=O)Nc4cccc5ccccc45)sc3nc2C)cc1` (stereo not given), the GI50 is 0.307 µM and the TGI is greater than 50.5 µM.

Regarding `Cc1cc(Br)c(NC(=O)c2c(-c3c(Cl)cccc3Cl)noc2C)c(Br)c1`, the GI50 was greater than 100 µM and the TGI was greater than 100 µM.

For `OCC1CC[N-]CC1.OCC1CC[N-]CC1.[Cl][Pt+2]([Cl])([Cl])[Cl]`, the GI50 is 33.8 µM.

Turning to `OCCCCC#Cc1ccccc1C#Cc1cccc(C(F)(F)F)c1`, the GI50 was 15.5 µM and the TGI amounted to 31.1 µM.

As to `CC(C)Cc1ccc(C(C)/C=C2\CCC(CN(C)C)C2=O)cc1` (stereo not given), the TGI was found to be 24.3 µM.

`CCCCCC/C=C\CCCCCCCCC(=O)c1cccc(OC)c1OC` showed a TGI greater than 100 µM.

In turn, `Cn1c(=O)c2nc3sc4c(n3c2n(C)c1=O)C(=O)c1ccccc1C4=O` had a TGI of 87.3 µM.

`COc1ccc(/C=C2\CCC/C(=C\c3ccc(OC)c(OC)c3)C2=O)cc1OC`: the GI50 was 1.18 µM and the TGI was 17.5 µM.

The test system of a further assay is UACC-257 melanoma. As to the kind of experiment: NCI anticancer screen, dose series, 48 h.
As for `Nc1nc(=S)c2ncn(C3OC(COP(=O)(O)O)C(O)C3O)c2[nH]1` (stereo not given), the GI50 is 4.57 µM and the TGI is greater than 100 µM.

Consider `O=C(Nc1ccc(OC(F)(F)Cl)cc1)c1cnc(N2CC[C@@H](O)C2)c(-c2ccn[nH]2)c1`, for which the GI50 is 10.5 µM and the TGI worked out at 22.6 µM.

On to `NC(N)=NCCCC(NCc1c2ccccc2nc2ccccc12)C(=O)O` (stereo not given), for which the TGI was greater than 88.6 µM.

For the compound `Cc1cnc(C(=O)NNc2nc3sc4c(c3c(=O)[nH]2)C(C)CCC4)cn1` (stereo not given), the GI50 is 2.61 µM and the TGI amounted to 11.3 µM.

`O=C1c2ccccc2C(=O)c2c(NC3CCCCC3)ccc(Nc3ccc(S(=O)(=O)O)cc3)c21` had a TGI of 63.7 µM.

Turning to `CN(C)c1ccc(-c2cc(-c3ccc(Nc4nc(Nc5ccc(Cl)cc5)nc(Nc5ccc(Cl)cc5)n4)cc3)nc(N)c2C#N)cc1`, the GI50 was 12.3 µM and the TGI is greater than 100 µM.

As for `COCCN(Cc1ccc(F)cc1)c1ccc(CO)c(Cl)c1`, the GI50 was 0.492 µM and the TGI was 2.5 µM.

For the compound `COc1ccc(C(O)c2cc3c(N)c(C(=O)Nc4cccc5ccccc45)sc3nc2C)cc1` (stereo not given), the TGI was greater than 32.5 µM.

For `Cc1cc(Br)c(NC(=O)c2c(-c3c(Cl)cccc3Cl)noc2C)c(Br)c1`, the GI50 is greater than 100 µM and the TGI was greater than 100 µM.

On to `OCC1CC[N-]CC1.OCC1CC[N-]CC1.[Cl][Pt+2]([Cl])([Cl])[Cl]`, for which the GI50 was 31 µM.

`OCCCCC#Cc1ccccc1C#Cc1cccc(C(F)(F)F)c1`: the GI50 was 16.7 µM and the TGI was found to be 31.8 µM.

`CC(C)Cc1ccc(C(C)/C=C2\CCC(CN(C)C)C2=O)cc1` (stereo not given): the TGI stood at 30 µM.

As for `CCCCCC/C=C\CCCCCCCCC(=O)c1cccc(OC)c1OC`, the TGI was greater than 100 µM.

As to `Cn1c(=O)c2nc3sc4c(n3c2n(C)c1=O)C(=O)c1ccccc1C4=O`, the TGI was greater than 100 µM.

For `COc1ccc(/C=C2\CCC/C(=C\c3ccc(OC)c(OC)c3)C2=O)cc1OC`, the GI50 is 4.65 µM and the TGI is greater than 32.5 µM.

A further assay deals with COLO 205 colon. As to the kind of experiment: NCI anticancer screen, dose series, 48 h.
For the compound `Nc1nc(=S)c2ncn(C3OC(COP(=O)(O)O)C(O)C3O)c2[nH]1` (stereo not given), the GI50 is 2.66 µM and the TGI was found to be 9.04 µM.

In the case of `O=C(Nc1ccc(OC(F)(F)Cl)cc1)c1cnc(N2CC[C@@H](O)C2)c(-c2ccn[nH]2)c1`, the GI50 is 5.58 µM and the TGI worked out at 19.7 µM.

`NC(N)=NCCCC(NCc1c2ccccc2nc2ccccc12)C(=O)O` (stereo not given) yielded a TGI greater than 100 µM.

Regarding `Cc1cnc(C(=O)NNc2nc3sc4c(c3c(=O)[nH]2)C(C)CCC4)cn1` (stereo not given), the GI50 was 2.03 µM and the TGI turned out to be 13.4 µM.

On to `O=C1c2ccccc2C(=O)c2c(NC3CCCCC3)ccc(Nc3ccc(S(=O)(=O)O)cc3)c21`, for which the TGI was 53.1 µM.

As to `CN(C)c1ccc(-c2cc(-c3ccc(Nc4nc(Nc5ccc(Cl)cc5)nc(Nc5ccc(Cl)cc5)n4)cc3)nc(N)c2C#N)cc1`, the GI50 is 7.88 µM and the TGI is greater than 100 µM.

On to `COCCN(Cc1ccc(F)cc1)c1ccc(CO)c(Cl)c1`, for which the GI50 was 11.1 µM and the TGI was 31.8 µM.

With `COc1ccc(C(O)c2cc3c(N)c(C(=O)Nc4cccc5ccccc45)sc3nc2C)cc1` (stereo not given), the GI50 is 0.457 µM and the TGI was greater than 33.1 µM.

On to `Cc1cc(Br)c(NC(=O)c2c(-c3c(Cl)cccc3Cl)noc2C)c(Br)c1`, for which the GI50 is greater than 100 µM and the TGI is greater than 100 µM.

As for `OCC1CC[N-]CC1.OCC1CC[N-]CC1.[Cl][Pt+2]([Cl])([Cl])[Cl]`, the GI50 was 29.3 µM.

Regarding `OCCCCC#Cc1ccccc1C#Cc1cccc(C(F)(F)F)c1`, the GI50 is 19.2 µM and the TGI turned out to be 36.3 µM.

Turning to `CC(C)Cc1ccc(C(C)/C=C2\CCC(CN(C)C)C2=O)cc1` (stereo not given), the TGI was determined as 32.1 µM.

`CCCCCC/C=C\CCCCCCCCC(=O)c1cccc(OC)c1OC` displayed a TGI greater than 100 µM.

As for `Cn1c(=O)c2nc3sc4c(n3c2n(C)c1=O)C(=O)c1ccccc1C4=O`, the TGI was greater than 100 µM.

In the case of `COc1ccc(/C=C2\CCC/C(=C\c3ccc(OC)c(OC)c3)C2=O)cc1OC`, the GI50 was 1.46 µM and the TGI was greater than 32.5 µM.

The next assay deals with SF-268 CNS. As to the kind of experiment: NCI anticancer screen, dose series, 48 h.
For `Nc1nc(=S)c2ncn(C3OC(COP(=O)(O)O)C(O)C3O)c2[nH]1` (stereo not given), the GI50 was 2.11 µM and the TGI is greater than 100 µM.

As to `O=C(Nc1ccc(OC(F)(F)Cl)cc1)c1cnc(N2CC[C@@H](O)C2)c(-c2ccn[nH]2)c1`, the GI50 was 15.4 µM and the TGI was 39.2 µM.

Compound `NC(N)=NCCCC(NCc1c2ccccc2nc2ccccc12)C(=O)O` (stereo not given) registered a TGI greater than 100 µM.

For the compound `Cc1cnc(C(=O)NNc2nc3sc4c(c3c(=O)[nH]2)C(C)CCC4)cn1` (stereo not given), the GI50 was 0.891 µM and the TGI was greater than 100 µM.

As for `O=C1c2ccccc2C(=O)c2c(NC3CCCCC3)ccc(Nc3ccc(S(=O)(=O)O)cc3)c21`, the TGI was greater than 100 µM.

`CN(C)c1ccc(-c2cc(-c3ccc(Nc4nc(Nc5ccc(Cl)cc5)nc(Nc5ccc(Cl)cc5)n4)cc3)nc(N)c2C#N)cc1`: the GI50 is 40.3 µM and the TGI was greater than 100 µM.

With `COCCN(Cc1ccc(F)cc1)c1ccc(CO)c(Cl)c1`, the GI50 was 50.6 µM and the TGI is greater than 100 µM.

For `COc1ccc(C(O)c2cc3c(N)c(C(=O)Nc4cccc5ccccc45)sc3nc2C)cc1` (stereo not given), the GI50 was 0.615 µM and the TGI is greater than 100 µM.

`Cc1cc(Br)c(NC(=O)c2c(-c3c(Cl)cccc3Cl)noc2C)c(Br)c1`: the GI50 is greater than 100 µM and the TGI was greater than 100 µM.

On to `OCC1CC[N-]CC1.OCC1CC[N-]CC1.[Cl][Pt+2]([Cl])([Cl])[Cl]`, for which the GI50 is 40.5 µM.

For `OCCCCC#Cc1ccccc1C#Cc1cccc(C(F)(F)F)c1`, the GI50 was 19.1 µM and the TGI was found to be 42.5 µM.

`CC(C)Cc1ccc(C(C)/C=C2\CCC(CN(C)C)C2=O)cc1` (stereo not given) showed a TGI of 25.5 µM.

Turning to `CCCCCC/C=C\CCCCCCCCC(=O)c1cccc(OC)c1OC`, the TGI is greater than 100 µM.

`Cn1c(=O)c2nc3sc4c(n3c2n(C)c1=O)C(=O)c1ccccc1C4=O` returned a TGI greater than 100 µM.

With `COc1ccc(/C=C2\CCC/C(=C\c3ccc(OC)c(OC)c3)C2=O)cc1OC`, the GI50 was 4.28 µM and the TGI is greater than 32.5 µM.
